Experimental data reported in patent US20250319094A1, “COMPOSITION FOR PREVENTING OR TREATING ATOPIC DERMATITIS” (Yonsei University BioHealth Technology Holdings, Inc., priority 2022, published 2025).

Tests used:
flaky tail mice = assay: Chronic itch behavior before and after application of test drug; type: in vivo, mouse; settings: drug 3 times a week for 4 weeks after 4 weeks HDM; before vs after application
Experimental: Additional experiments were performed to compare the ITCH behavior before and after application of the dexamethasone, tacrolimus, and bentamapimod agents disclosed above. Specifically, atopic dermatitis was induced by applying 100 mg of HDM ointment to the backs of flaky tail mice for 4 weeks, after which drug treatments were applied 3 times a week for 4 weeks, and the chronic itch behavior before and after application of these test drugs was quantified and graphed (see FIG. 9a and FIG. 9b).

normal skin tissue = assay: Cell viability (CCK-8) cytotoxicity on normal skin tissue cells; type: cell-based; settings: overnight
Experimental: We sought to determine the optimal concentration of the drug Bentamapimod identified above that would not affect the cytotoxicity of the drug. To determine the final concentration of the drug, normal skin tissue was seeded as cells in […] 96-well plates using 5% (v/v) RPMI1640 medium (LONZA) and 1% penicillin/streptomycin medium and treated with bentamapimod at concentrations of 1 μM, 10 μM, 50 μM, 100 μM, and 200 μM, respectively, and incubated overnight in a 37° C. incubator. Then, 10 μl of Cell Counting Kit-8 drug (Dojindo Lot. PR863) was seeded into 96-well plates and the absorbance was measured at […] after 2 h.

[1] = test system: atopic dermatitis-induced flaky tail mice; assay: Treatment effect in HDM-induced atopic dermatitis mouse model (clinical photograph, dermatitis score); type: in vivo; settings: 50 μM or 100 μM, 200 μL on back, 4 weeks
Experimental: The backs of the mice were shaved and exfoliated with a 4% diluted sodium dodecyl sulfate solution (SIGMA Lot #BCCD5615) once every 3 days to remove dead skin cells, and House Dust Mite (HDM), a typical trigger/exacerbator of atopic dermatitis, was topically applied to the mice to induce atopic skin lesions. The house dust mite ointment used was Atopic dermatitis challenging ointment from Biostir (Osaka, Japan), and atopic dermatitis-induced mice were prepared as described above (see FIG. 1).
In order to determine whether the bentamapimod drug discovered above has a therapeutic effect on atopic dermatitis, experiments were conducted using the mouse model prepared in the preliminary example and divided into control and experimental groups according to the timeline diagram shown in FIG. 4. […] To further verify the treatment effect, the flaky tail Mice dermatitis score of the atopic dermatitis mouse model according to the drug treatment was calculated by Wilcoxon-signed rank test and shown in FIG. 6. […]

[2] = test system: T cells in skin-draining lymph nodes; assay: FACS of T cell fractions in skin-draining lymph nodes of atopic dermatitis mouse model; type: in vivo
Experimental: (§1) To test the effect of the newly discovered bentamapimod drugs on skin-specific T cells, flaky tail mice were induced with atopic skin lesions using HDM three times a week until week 4 of the experiment as described in the Preparations and Examples above, and then treated with each drug at different concentrations for another 4 weeks. To determine changes in skin-specific T cells in each animal, single suspensions were then prepared from spleen, skin, and lymph nodes, and T cells were stained with anti-CD3, anti-CD4, anti-CD8, and anti-CD45 antibodies. Flow cytometric analysis of skin-specific T cells was performed using anti-CD69 and anti-CD103 antibodies to observe changes in the number and distribution of skin-specific T cells in response to drug application.

skin-specific T cells [3] = assay: Flow cytometry of skin T cells from atopic dermatitis patient skin after drug application; type: cell-based, human; settings: immune cell fractions from skin tissue of atopic dermatitis patients
Experimental: To test the effect of the candidate drug on skin-specific T cells in human skin tissue, a single suspension was prepared using skin from a patient with atopic dermatitis. T cells were stained using anti-CD3, anti-CD4, anti-CD8, and anti-CD45 antibodies, and flow cytometry was performed on skin T cells using the skin TRM markers CD69 and CD103 to observe changes in the number and distribution of skin-specific T cells in response to drug application.

[4] = test system: atopic dermatitis-induced flaky tail mice; assay: Acute wiping (pain) and scratching (itching) behavior after drug application; type: in vivo, mouse
Excerpt: The existing drug dexamethasone is widely used as a treatment for atopic dermatitis, but long-term use causes various local side effects such as skin atrophy, dilated skin capillaries, and hypopigmented spots. Tacrolimus, which was developed to minimize these long-term local side effects, solved the problem of long-term and permanent local side effects of steroid drugs, but short-term skin irritation symptoms are emerging as a new problem, as it is known that about 50% of patients experience burning and skin rash at the beginning of application. Therefore, it is necessary to overcome the skin irritation side effects, and we wanted to check whether the newly discovered drug of bentamapimod can resolve the above side effects while maintaining the effectiveness of the animal drug through behavioral analysis of pain and itching using Flaky Tail mice. Wiping the face with the forelegs was interpreted as a behavioral measure of pain in mice, and scratching with the hind legs was interpreted as a behavioral measure of itching (J Vis Exp. 2019 Sep. 27; (151)). […] Flaky tail mice were treated with 200 μL of the test agent per group for one week to facilitate comparison, and the number of itches and pain behaviors were quantified and graphed (see FIG. 8a and FIG. 8b).

skin-specific T cells [5] = assay: Flow cytometry of T cell fractions in skin of atopic dermatitis mouse model; type: in vivo; settings: 4 weeks
Experimental: as §1

[6] = at the beginning of application; cited from earlier work

SMILES: N#CC(c1ccnc(OCc2ccc(CN3CCOCC3)cc2)n1)c1nc2ccccc2s1 (stereo not drawn) [bentamapimod, α-[2-[[4-(4-morpholinylmethyl)phenyl]methoxy]-4-pyrimidinyl]-2-benzothiazoleacetonitrile]
- chronic scratching behavior, treatment effect (flaky tail mice): treatment effect was particularly significant
- cell viability (normal skin tissue; 50 μM): greater than 90%
- cell viability (normal skin tissue; 100 μM): greater than 90%
- atopic dermatitis scores (Flaky tail Mice dermatitis score) ([1]; FIG. 6): equivalent to or better than those of conventional drugs
- treatment effect on atopic dermatitis skin lesions (wounding, dryness, desquamation, erythema, hemorrhage, edema) ([1]; compared to conventional drugs, FIG. 5): clinically significant treatment effect
- CD3+ T cells in skin-draining lymph nodes ([2]; 100 μM): statistically significantly lower
- CD3+ CD4+ CD69+ CD103+ T cells ([2]; 100 μM, skin-draining lymph nodes): statistically significantly lower
- fraction of T cells expressing CD69 among CD3+ CD4+ T cells ([2]; skin-draining lymph nodes): reduced
- percentage of T cells compared to the 0.1% dexamethasone group ([2]; skin-draining lymph nodes): significantly reduced
- percentage of skin-specific T cells (skin-specific T cells [3]; 50 μM): significant dose-dependent decrease
- percentage of skin-specific T cells (skin-specific T cells [3]; 100 μM): significant dose-dependent decrease
- local irritation symptoms such as itching and pain ([4]; 50 μM and 100 μM): did not cause local irritation symptoms
- number of scratching and wiping behaviors versus control D.W group ([4]; 50 μM, 200 μL on back): no difference
- number of scratching and wiping behaviors versus control D.W group ([4]; 100 μM, 200 μL on back): no difference
- percentage of CD3+, CD4+ T cells in the skin (skin-specific T cells [5]; 50 μM): significantly reduced in a dose-dependent manner
- percentage of CD3+, CD4+ T cells in the skin (skin-specific T cells [5]; 100 μM): significantly reduced in a dose-dependent manner
- percentage of CD69+ T cells and CD103+ T cells (skin-resident T cells) (skin-specific T cells [5]; skin): significantly reduced
- percentage of skin-specific T cells compared to the control 0.1% dexamethasone group (skin-specific T cells [5]; skin): significantly reduced

SMILES: C=CC[C@@H]1/C=C(\C)C[C@H](C)C[C@H](OC)[C@H]2O[C@@](O)(C(=O)C(=O)N3CCCC[C@H]3C(=O)O[C@H](/C(C)=C/[C@@H]3CC[C@@H](O)[C@H](OC)C3)[C@H](C)[C@@H](O)CC1=O)[C@H](C)C[C@@H]2OC [tacrolimus]
- patients who experience burning and skin rash [6]: about 50%
- time at which wiping behaviors peaked ([4]; 0.1% concentration, 200 μL on back): 30 min
- number of scratching behaviors ([4]; 0.1% concentration, 200 μL on back, in 30 minutes): 17 times
